Measured values taken from patent US11045456B2, “Compositions and methods for treating COPD and other inflammatory conditions” (Georgia State University Research Foundation, Inc., priority 2015, dated 2021).

What was measured:
Type in all cases: cell-based, human
[1] = system: CCL5, CCL7, CXCL10 and CXCL11; assay: NTHi-induced chemokine expression in PDE4B2-stable cells
PDE4B [2] = assay: PDE4B mRNA expression (Q-PCR) in BEAS-2B cells stimulated with NTHi; conditions: for PDE4B mRNA expression: BEAS-2B, relative to control
Description: (§1) Bacterial strains and culture condition. Clinical isolates of NTHi strain 12 were used in this study (Ishinaga et al., EMBO J., 26(4):1150-1162, 2007). Bacteria were grown on chocolate agar plates at 37° C. in an atmosphere of 5% CO2 overnight and subsequently inoculated in brain heart infusion (BHI) broth supplemented with 3.5 μg/mL NAD and hemoglobin (BD Biosciences). After overnight incubation, the bacteria were subcultured into fresh broth and the log phase bacteria, monitored by measurement of optical density (OD) value, were washed and suspended in DMEM for in vitro cell experiments and in isotonic saline for in vivo animal experiments. For all in vitro experiments except the dose dependent experiment, NTHi was treated at multiplicity of infection (MOI) of 50.
(§2) Cell culture. All media described below were supplemented with 10% fetal bovine serum (Sigma-Aldrich). Human bronchial epithelial BEAS-2B cells were maintained in RPMI medium (Life Technologies) (ATCC® CRL-9609™). Human primary bronchial epithelial NHBE (Lonza) cells were maintained in bronchial epithelial growth media (BEGM) supplemented with BEGM SingleQuots (Jono et al., J. Biol. Chem. 277(47):45547-45557, 2002). BEAS-2B cells stably expressing human PDE4B2 (PDE4B2-stable cells) were obtained by plasmid transfection following Geneticin selection (300 μg/mL). Cells were cultured in a humidified atmosphere of 5% CO2 at 37° C.

PDE4B2 [3] = assay: PDE4B2 protein expression (Western blot) in airway epithelial cell extracts; conditions: NTHi and roflumilast
Description: Western blot. Whole-cell extracts and mouse lung tissue extracts were recovered with lysis buffer (50 mM Tris-HCl at pH7.4, 1% NP40, 0.25% deoxycholate, 150 mM NaCl, 1 mM EDTA, 1 mM NaF, supplemented with 1 mM Na3VO4 and PIC). For PDE4B protein, cell extracts were recovered with Buffer A as described above. Cell or tissue extracts were separated on 8% SDS-PAGE gels and transferred to polyvinylidene difluoride (PVDF) membrane (GE Healthcare Life Sciences). The membrane was blocked with a solution of TBS containing 0.1% Tween 20 (TBS-T) and 5% non-fat dry milk. The membrane was then incubated in a 1:1,000-1:2,000 dilution of a primary antibody in 5% BSA-TBS-T. After washing (×3) with TBS-T, the membrane was incubated with a 1:5,000 dilution of the corresponding secondary antibody in 2.5% non-fat dry milk-TBS-T. Respective proteins were visualized using Amersham ECL Prime Regent (GE Healthcare Life Sciences).

PDE4B2 [4] = assay: PDE4B2 expression (RT-PCR) in BEAS-2B cells
Description: as §1, §2
Plasmids, transfections and luciferase assay. The expression plasmids, constitutively active forms of IKKα (IKKα-CA, S176E/S180E) and IKKβ (IKKβ-CA, S177E/S181E) and a dominant negative form of IκBα (IκBα-DN, S32A/S36A) were previously described (Shuto et al., Proc. Natl. Acad. Sci. USA, 98(15):8774-8779, 2001; Ishinaga et al., supra). Luciferase reporter construct of NF-κB (pGL4.32) was purchased from Promega. Human PDE4B2, p65 (RelA) and PKA-Cβ1/2 cDNA sequences were generated and inserted into the BamHI and HindIII sites of the pcDNA3.1/mycHis(−) vector. Mutant p65 and PDE4B2-D392A were generated by using PRIMESTAR® Max (Takara). Empty vector was used as a control and was also added where necessary to ensure an equivalent amount of input DNA. All transient transfections were carried out in triplicate using TRANSIT-LT1® reagent (Minis) following the manufacturer's instruction.

PDE4B [5] = assay: PDE4B mRNA expression (Q-PCR) in primary NHBE cells stimulated with NTHi; conditions: Rof 0.1 μM 1 hour, then 1.5-hour NTHi
Description: as §1
as §2, with “Cells were cultured in a humidified atmosphere of 5% CO2 at 37° C.” left out

O=C(Nc1c(Cl)cncc1Cl)c1ccc(OC(F)F)c(OCC2CC2)c1 [roflumilast]
NTHi-induced expression of CCL5, CCL7, CXCL10 and CXCL11 (Group A-chemokines) ([1]; highest concentration tested (10 μM)): unable to fully inhibit
NTHi-induced expression of CXCL10 and CXCL11 ([1]; lower dose of roflumilast (<1 μM)): slightly enhanced
PDE4B expression at the mRNA level (PDE4B [2]; BEAS-2B cells, roflumilast with NTHi, Q-PCR, dose-dependent): synergized with NTHi to up-regulate PDE4B expression
PDE4B mRNA expression (PDE4B [2]; Rof 0.1 μM 1 h, then 1.5-hour NTHi at MOI of 25, 50, and 100): increased
PDE4B mRNA expression (PDE4B [2]; Rof 0.01, 0.1, and 1 μM 1 h, then 1.5-hour NTHi): increased
~70-kDa PDE4B isoform (PDE4B2 protein) (PDE4B2 [3]): induced an increase
expression of PDE4B2 (PDE4B2 [4]; BEAS-2B, Rof 0.1 μM with NTHi or TNF-α (10 ng/mL), semi-quantitative RT-PCR): synergistically up-regulated
PDE4B2 expression (PDE4B2 [4]; cells transfected with p65 mutants S468A, S529A and S536A but not S276A, roflumilast and NTHi): synergistically enhanced
PDE4B2 expression (PDE4B2 [4]; in IKKβ-CA- but not IKKα-CA-transfected BEAS-2B cells): synergistically enhanced
PDE4B2 expression (PDE4B2 [4]; p65-transfected cells): synergistically enhanced
PDE4B mRNA expression (PDE4B [5]): increasing PDE4B mRNA significantly
